Consider one compound from patent US20210315474A1, “DECOUPLED COIL ASSEMBLIES, MAGNETIC RESONANCE SYSTEMS AND METHODS OF USE” (FluoID Inc, priority 2018, published 2021).

The nature of this data set: 19F magnetic resonance imaging in vivo: tracking isoflurane in rat brain. The settings on record: live Sprague-Dawley rat.

From the text: A MR system is utilized for this representative imaging experiment.
Here, indirect inverse irradiation focused on 19F is utilized to provide rapid and specific identification of the target molecule of interest while observing 1H, while circulating in a subject organism.
A live Sprague-Dawley rat was secured in the bed of the representative holding assembly of Example 1B. The RF coil elements were situated such that the area around its head was encircled to provide complete coverage for the brain of the animal, then the assembly placed in the MRI system of Example 1C. Localization of the spin species of interest, 19F, was accomplished with a spin-echo (or, alternatively, gradient-echo) sequence preceded with a magnetization transfer (MT) pulse allowing magnetization from 19F to 1H. The rat was subjected to increasing stepwise amounts of isoflurane, an inhaled general anesthetic with chemical structure CF3-CHCl—O—CHF2, over 30 minutes (see Table 2), then the flow was halted.
Anatomical MR images were obtained also using a standard spin-echo (or alternatively, gradient-echo) sequence. The MT pulse duration and strength were maintained constant prior to the signal acquisition by the surface coil.

For `FC(F)OC(Cl)C(F)(F)F` (centres unmarked) [isoflurane], the “19F signal seen in the brain (level of the drug reaching the CNS in real time)” value (inhaled isoflurane increased stepwise 1%-3% over 30 minutes, MT pulse 19F to 1H, FIG. 17) is listed as “increasing amount of 19F signal seen in the brain”. Moreover, the “concentration of isoflurane in the brain after cessation of anesthetic delivery” value (over the 30 minutes following cessation of anesthetic delivery (not shown)) was “disappearance of the concentration of isoflurane in the brain could be observed”.
